In PubChem BioAssay (NCI) one finds TGI and GI50 data, which are given here for 12 compounds.

Where “and” joins values, the source holds several entries; their conditions need not be identical. Equal values may be shown once.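 Five concentrations, 48 hours, 96-well plates. Here, GI50 denotes the concentration required for 50% inhibition of growth. TGI denotes the concentration required for complete inhibition of growth.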

Among the test systems are PC-3 prostate; CAKI-1 renal; NCI-H522 lung; HT29 colon; HCC-2998 colon; SN12C renal; CCRF-CEM leukemia; SF-295 CNS; SW-620 colon; HOP-62 NSCLC.
Common to all, as to assay: NCI-60 cell line screen, 48 h

Consider `Cc1ccc(S(=O)(=O)SC/C=C\CSS(=O)(=O)c2ccc(C)cc2)cc1`, for which the TGI with PC-3 prostate is greater than 100 µM; in the assay on CAKI-1 renal it was 88.9 µM and 45.7 µM; in the assay with NCI-H522 lung it was 15.6 µM and 30.8 µM; in the assay with HT29 colon, > 62.8 µM and 39.7 µM; with HCC-2998 colon, greater than 100 µM; with SN12C renal, 88.5 µM and 37.1 µM. The TGI in the assay with CCRF-CEM leukemia is 37.6 µM; with SF-295 CNS, > 95.7 µM and 50.7 µM; with SW-620 colon it was 74.2 µM and 29.8 µM; with HOP-62 NSCLC, greater than 100 µM. The GI50 with NCI-H522 lung is 3.79 µM and 17.1 µM; in the assay with HT29 colon it was 6.14 µM and 20.3 µM.
As for `COc1cc(C)ccc1C(=O)c1ccc(C)cc1OC`, the GI50 in the assay on PC-3 prostate is 4.08 µM; with CAKI-1 renal it was 2.3 µM; in the assay with NCI-H522 lung, 1.76 µM; with HT29 colon, 1.85 µM; with HCC-2998 colon, 2.87 µM; in the assay with SN12C renal, 15.7 µM. Further, the GI50 is 5.57 µM in the assay on CCRF-CEM leukemia, 1.95 µM in the assay with SF-295 CNS, 1.41 µM in the assay with SW-620 colon and 3.11 µM in the assay on HOP-62 NSCLC. Moreover, the TGI in the assay on PC-3 prostate was greater than 100 µM; in the assay with CAKI-1 renal, 92.3 µM; in the assay on NCI-H522 lung, 4.96 µM; in the assay on HT29 colon it was 7.99 µM; in the assay with HCC-2998 colon, 35.9 µM; in the assay on SN12C renal it was greater than 100 µM. Moreover, the TGI is greater than 100 µM in the assay with CCRF-CEM leukemia, 43.4 µM in the assay on SF-295 CNS, greater than 100 µM in the assay on SW-620 colon and greater than 100 µM with HOP-62 NSCLC.
Take `CC1=C([Se]CC(OC(=O)CC[Se]c2ccccc2)C(=O)NC(C)(C)C)C(=O)c2ccccc2C1=O` (stereo unspecified): the GI50 in the assay with PC-3 prostate was 1.48 µM; with CAKI-1 renal, 2.37 µM; in the assay on NCI-H522 lung, 1.67 µM; in the assay on HT29 colon, 1.96 µM; in the assay with HCC-2998 colon, 1.76 µM; in the assay with SN12C renal it was 1.67 µM. Further, the GI50 was 0.628 µM with CCRF-CEM leukemia, 0.316 µM in the assay on SF-295 CNS, 1.91 µM in the assay on SW-620 colon and 0.357 µM in the assay on HOP-62 NSCLC. Also, the TGI with PC-3 prostate was 2.8 µM; in the assay with CAKI-1 renal it was 4.58 µM; with NCI-H522 lung it was 3.34 µM; with HT29 colon, 3.64 µM; with HCC-2998 colon, 3.2 µM; with SN12C renal, 3.13 µM. In addition, the TGI came out at 4.1 µM with CCRF-CEM leukemia, 1.37 µM with SF-295 CNS, 3.88 µM with SW-620 colon and 1.7 µM in the assay on HOP-62 NSCLC.
For `O=C(Oc1cccnc1)c1cccnc1Nc1ccnc(C(F)(F)F)c1`, the GI50 was 7.03 µM in the assay on PC-3 prostate; 4.73 µM with CAKI-1 renal; 14.5 µM with NCI-H522 lung; 30.8 µM in the assay on HT29 colon; 16.8 µM in the assay with HCC-2998 colon; 6.48 µM in the assay on SN12C renal. Moreover, the GI50 in the assay on CCRF-CEM leukemia is 2.49 µM; in the assay with SF-295 CNS, 44.4 µM; with SW-620 colon it was 5.47 µM; in the assay on HOP-62 NSCLC, 13.7 µM. The TGI is 56.1 µM in the assay with PC-3 prostate; 30.2 µM in the assay with CAKI-1 renal; greater than 100 µM with NCI-H522 lung; greater than 100 µM in the assay on HT29 colon; 35.3 µM with HCC-2998 colon; greater than 100 µM in the assay with SN12C renal. In addition, the TGI in the assay with CCRF-CEM leukemia is 10.5 µM; in the assay on SF-295 CNS, greater than 100 µM; in the assay on SW-620 colon, greater than 100 µM; with HOP-62 NSCLC, 36 µM.
`COc1ccc2c(c1)C(=O)/C(=C/c1cccc(OCC(=O)c3ccccc3)c1)CC2`: the GI50 with PC-3 prostate was 4.92 µM; in the assay with CAKI-1 renal, 13 µM; with NCI-H522 lung, 8.84 µM; with HT29 colon, 9.9 µM; with HCC-2998 colon, 25.8 µM; in the assay with SN12C renal, 61 µM. In addition, the GI50 in the assay with CCRF-CEM leukemia was 2.48 µM; with SF-295 CNS, 10.3 µM; in the assay on SW-620 colon, 4.88 µM; in the assay on HOP-62 NSCLC, 42.5 µM. Besides, the TGI in the assay on PC-3 prostate, with CAKI-1 renal, in the assay with NCI-H522 lung, in the assay with HT29 colon, in the assay with HCC-2998 colon and in the assay on SN12C renal was greater than 100 µM throughout. Further, the TGI in the assay on CCRF-CEM leukemia was 7.67 µM; in the assay with SF-295 CNS, greater than 100 µM; in the assay with SW-620 colon, greater than 100 µM; in the assay with HOP-62 NSCLC it was greater than 100 µM.
For the compound `O=C(O)c1nc(NCc2nc3cc(Cl)ccc3o2)n[nH]1`, the GI50 in the assay on PC-3 prostate, in the assay with CAKI-1 renal, with NCI-H522 lung, in the assay with HT29 colon, in the assay on HCC-2998 colon and in the assay on SN12C renal was greater than 100 µM throughout. Besides, the GI50 in the assay with CCRF-CEM leukemia, in the assay on SF-295 CNS, in the assay on SW-620 colon and with HOP-62 NSCLC was greater than 100 µM each time. Also, the TGI with PC-3 prostate, with CAKI-1 renal, with NCI-H522 lung, in the assay with HT29 colon, in the assay on HCC-2998 colon and in the assay with SN12C renal was greater than 100 µM throughout. In addition, the TGI in the assay on CCRF-CEM leukemia, with SF-295 CNS, in the assay on SW-620 colon and in the assay on HOP-62 NSCLC was greater than 100 µM throughout.
With `C/C(=N/O)c1cccc(Nc2cc(-n3nnc4ccccc43)nc3ccccc23)c1`, the GI50 in the assay on PC-3 prostate is 8.87 µM; in the assay on CAKI-1 renal, 16.8 µM; with NCI-H522 lung it was 19.4 µM; with HT29 colon, 12.3 µM; with HCC-2998 colon, 10.5 µM; in the assay with SN12C renal, 8.96 µM. Further, the GI50 in the assay with CCRF-CEM leukemia was 3.98 µM; in the assay on SF-295 CNS, 5.62 µM; with SW-620 colon, 21.5 µM; with HOP-62 NSCLC it was 20.5 µM. The TGI in the assay on PC-3 prostate is 33.5 µM; in the assay with CAKI-1 renal, 43.5 µM; in the assay with NCI-H522 lung it was greater than 57.5 µM; with HT29 colon, greater than 100 µM; in the assay on HCC-2998 colon it was 23.2 µM; in the assay on SN12C renal, 30.5 µM. The TGI in the assay on CCRF-CEM leukemia is 18.6 µM; in the assay on SF-295 CNS, 19.8 µM; in the assay with SW-620 colon, 57 µM; with HOP-62 NSCLC it was 44.2 µM.
As to `O=C1OCC2=C1C(c1cccc(F)c1)c1cc3c(cc1N2CCO)OCO3` (stereo unspecified), the GI50 was 1.46 µM with PC-3 prostate; 1.24 µM in the assay with CAKI-1 renal; 0.259 µM in the assay with NCI-H522 lung; 1.52 µM in the assay with HT29 colon; 7.06 µM in the assay on HCC-2998 colon; 3.05 µM with SN12C renal. The GI50 with CCRF-CEM leukemia is 2.37 µM; with SF-295 CNS, 1.2 µM; in the assay with SW-620 colon, 1.65 µM; in the assay with HOP-62 NSCLC, 2.19 µM. Further, the TGI with PC-3 prostate was greater than 50 µM; in the assay on CAKI-1 renal it was greater than 50 µM; in the assay on NCI-H522 lung it was 29 µM; in the assay with HT29 colon it was greater than 50 µM; in the assay with HCC-2998 colon it was greater than 50 µM; in the assay with SN12C renal, greater than 50 µM. Besides, the TGI with CCRF-CEM leukemia, with SF-295 CNS, in the assay on SW-620 colon and in the assay on HOP-62 NSCLC was greater than 50 µM in each case.
On to `CN(C)CCNC(=O)Cn1ccc(=O)c2cc([N+](=O)[O-])ccc21`, for which the TGI in the assay with PC-3 prostate, in the assay on CAKI-1 renal, with NCI-H522 lung, in the assay with HT29 colon, in the assay on HCC-2998 colon and with SN12C renal was greater than 100 µM each time. Besides, the TGI in the assay with CCRF-CEM leukemia, in the assay with SF-295 CNS, in the assay on SW-620 colon and in the assay with HOP-62 NSCLC was greater than 100 µM each time.
Regarding `CC(CO)Nc1cc(-c2[nH]c3cccnc3c2-c2ccc(F)cc2)ccn1` (stereo unspecified), the GI50 in the assay on PC-3 prostate is 21.5 µM; in the assay with CAKI-1 renal, 8.23 µM; in the assay on NCI-H522 lung, greater than 25 µM; in the assay with HT29 colon it was 9.77 µM; with HCC-2998 colon, greater than 25 µM; with SN12C renal, 15.1 µM. Moreover, the GI50 is greater than 25 µM with CCRF-CEM leukemia, greater than 25 µM in the assay on SF-295 CNS, 20.3 µM with SW-620 colon and greater than 25 µM with HOP-62 NSCLC. The TGI with PC-3 prostate, in the assay on CAKI-1 renal, in the assay with NCI-H522 lung, in the assay on HT29 colon, with HCC-2998 colon and in the assay with SN12C renal was greater than 25 µM throughout. Besides, the TGI in the assay on CCRF-CEM leukemia, with SF-295 CNS, in the assay on SW-620 colon and in the assay with HOP-62 NSCLC was greater than 25 µM each time.
As for `COc1ccc(C2=Nn3c(nnc3-c3cc(Cl)cc(Cl)c3Cl)SC2)cc1`, the GI50 with PC-3 prostate is 0.687 µM; with CAKI-1 renal, 0.562 µM; in the assay on NCI-H522 lung, 0.256 µM; in the assay on HT29 colon, 0.336 µM; with HCC-2998 colon, 1.21 µM; in the assay with SN12C renal, 1.54 µM. The GI50 in the assay on CCRF-CEM leukemia is 0.519 µM; with SF-295 CNS, 0.0576 µM; in the assay with SW-620 colon it was 0.381 µM; in the assay with HOP-62 NSCLC, 0.478 µM. For the same compound, the TGI is greater than 100 µM in the assay on PC-3 prostate; greater than 49.7 µM with CAKI-1 renal; 2.51 µM in the assay with NCI-H522 lung; 5.41 µM with HCC-2998 colon; greater than 100 µM in the assay on SN12C renal; greater than 100 µM in the assay on CCRF-CEM leukemia. For the same compound, the TGI with SF-295 CNS was 1.4 µM; with SW-620 colon, greater than 100 µM; in the assay on HOP-62 NSCLC it was greater than 36.2 µM.
For the compound `O=S(=O)(Nc1ccc(Br)cc1)c1ccc(-c2cnc(C3CC3)o2)cc1`, the GI50 with PC-3 prostate is 2.67 µM; in the assay on CAKI-1 renal, 1.07 µM; in the assay on NCI-H522 lung, 0.855 µM; in the assay on HT29 colon, 0.715 µM; in the assay on HCC-2998 colon it was 2.38 µM; with SN12C renal, 4.41 µM. The GI50 was 2.14 µM in the assay on CCRF-CEM leukemia, 1.13 µM with SF-295 CNS, 0.785 µM in the assay with SW-620 colon and 2.37 µM in the assay with HOP-62 NSCLC. The TGI was found to be 15.5 µM in the assay on PC-3 prostate; 15.1 µM in the assay on CAKI-1 renal; 12.9 µM in the assay with NCI-H522 lung; 15.9 µM in the assay with HT29 colon; 15.4 µM in the assay on HCC-2998 colon; 18.2 µM with SN12C renal. Also, the TGI came out at 16.2 µM in the assay with CCRF-CEM leukemia, 11.8 µM in the assay on SF-295 CNS, 12.3 µM with SW-620 colon and 16.6 µM with HOP-62 NSCLC.
